Source: patent US20230263822A1, “MODULATION OF FACTOR 11 EXPRESSION” (Ionis Pharmaceuticals, Inc., priority 2008, published 2023)
Strand notation (5' to 3'): a small letter for the sugar, then the base; units joined by * are phosphorothioate-linked, units joined directly phosphodiester-linked; [ ] holds rarer units or linkages, { } end groups; capitals alone tell only the bases. e = 2'-O-(2-methoxyethyl) (MOE); [5mC] = 5-methylcytosine; d = 2'-deoxy (DNA)

Columns and labels:
[1] = test system: mouse Factor 11 mRNA; assay: Cross-reactive antisense inhibition of murine Factor 11 in primary mouse hepatocytes, 100 nM (Example 9); format: cell-based; conditions: ~24 hours
Procedure: Antisense oligonucleotides targeted to a murine factor 11 nucleic acid were tested for their effects on Factor 11 mRNA in vitro. Cultured primary mouse hepatocytes at a density of 10,000 cells per well were treated with 100 nM antisense oligonucleotide. After a treatment period of approximately 24 hours, RNA was isolated from the cells and mouse Factor 11 mRNA levels were measured by quantitative real-time PCR. Factor 11 mRNA levels were adjusted according to total RNA content, as measured by RIBOGREEN. Results are presented as percent inhibition of Factor 11, relative to untreated control cells.
The chimeric antisense oligonucleotides in Tables 16 were designed as 5-10-5 MOE gapmers. The gapmers are 20 nucleotides in length, wherein the central gap segment is comprised of 10 2′-deoxynucleotides and is flanked on both sides (in the 5′ and 3′ directions) by wings comprising 5 nucleotides each. Each nucleotide in the 5′ wing segment and each nucleotide in the 3′ wing segment has a 2′-MOE modification. The internucleoside linkages throughout each gapmer are phosphorothioate (P=S) linkages. All cytidine residues throughout each gapmer are 5-methylcytidines. “Mouse target start site” indicates the 5′-most nucleotide to which the gapmer is targeted. “Mouse target stop site” indicates the 3′-most nucleotide to which the gapmer is targeted. All the mouse oligonucleotides listed show cross-reactivity between the mouse Factor 11 mRNA (GENBANK Accession No. NM_028066.1), incorporated herein as SEQ ID NO: 6 and the human Factor 11 mRNA (GENBANK Accession No. NM_000128.3), incorporated herein as SEQ ID NO: 1. “Human Target Start Site” indicates the 5′-most nucleotide in the human mRNA (GENBANK Accession No. NM_000128.3) to which the antisense oligonucleotide is targeted. “Human Target Stop Site” indicates the 3′-most nucleotide in the human mRNA (GENBANK Accession No. NM_000128.3) to which the antisense oligonucleotide is targeted. “Number of mismatches” indicates the mismatches between the mouse oligonucleotide and the human mRNA sequence.

[2] = test system: blood coagulation; assay: PT and aPTT assay in platelet poor plasma (Example 10); format: in vivo; conditions: BALB/c mice
Procedure: BALB/c mice were injected with 5 mg/kg, 10 mg/kg, 25 mg/kg, or 50 mg/kg of ISIS 404057 or ISIS 404071 twice a week for 3 weeks. A control group of mice was injected with phosphate buffered saline (PBS) twice a week for 3 weeks. Mice were sacrificed 5 days after receiving the last dose. Whole liver was harvested for RNA analysis and plasma was collected for clotting analysis (PT and aPTT) and protein analysis.
Prothrombin Time (PT) and Activated Partial Thromboplastin Time (aPTT) were measured using platelet poor plasma (PPP) from mice treated with ISIS 404057 and ISIS 404071. PT and aPTT values provided in Table 18 are reported as International Normalized Ratio (INR) values. INR values for PT and aPTT were determined by dividing the PT or aPTT value for each experimental group (i.e. 5 mg/kg, 10 mg/kg, 25 mg/kg, and 50 mg/kg treatment with ISIS 404057 or ISIS 404071) by the PT or aPTT for the PBS treated group. This ratio was then raised to the power of the International Sensitivity Index (ISI) of the tissue factor used.

[3] = test system: mouse Factor 11 mRNA; assay: Sense-oligonucleotide antidote: Factor 11 mRNA in liver (Example 23); format: in vivo, BALB/c mice
Procedure: The effect of the specific sense oligonucleotide to ISIS 404071 as an antidote was tested in BALB/c mice. In a first cohort, ISIS 404071 was administered subcutaneously to BALB/c mice twice a week for three weeks at a dose of 40 mg/kg. In a second cohort, ISIS 404057 was administered subcutaneously to BALB/c mice twice a week for three weeks at a dose of 40 mg/kg. The ISIS 404071 specific antidote, ISIS 418026 ([…]; complementary to ISIS 404071), incorporated herein as SEQ ID NO: 13, was administered to both cohorts subcutaneously in a single injection of 90 mg/kg 48 hours after the final treatment of ISIS 404071 or 404057. In a third cohort, ISIS 404071 was administered subcutaneously to BALB/c mice twice a week for three weeks at a dose of 40 mg/kg. Following the last treatment of ISIS 404071, mice were injected subcutaneously injected with PBS. In a fourth cohort, ISIS 404057 was administered subcutaneously to BALB/c mice twice a week for three weeks at a dose of 40 mg/kg. Following the last treatment of ISIS 404057, mice were injected subcutaneously injected with PBS. Following antidote administration, a set of 4 mice from each cohort were sacrificed at 12 hours, 1 day, 2 days, 3 days, 7 days, and 14 days. Whole liver was collected for RNA analysis and PPP was collected for aPTT analysis.
RNA was extracted from liver tissue for real-time PCR analysis of Factor 11. Results are presented as percent inhibition of Factor 11, relative to PBS control.

[4] = rat, in vivo, sc, 50 mg/kg
[5] = rat, in vivo, sc, 50 mg/kg; remark: listed apart in the source
[6] = rat, in vivo, sc, 50 mg/kg; remark: listed apart in the source
Procedure: A control group of four Sprague Dawley rats was injected subcutaneously with PBS twice per week for 6 weeks. Body weight measurements were taken before and throughout the treatment period. Urine samples were taken before the start of treatment. Three days after the last dose, urine samples were taken and the rats were sacrificed. Organ weights were measured and blood was collected for further analysis.
Blood obtained from all rat groups were sent to Antech Diagnostics for hematocrit (HCT), mean corpuscular volume (MCV), mean corpuscular hemoglobin (MCV), and mean corpuscular hemoglobin concentration (MCHC) measurements and analyses, as well as measurements of various blood cells, such as WBC (neutrophils, lymphocytes and monocytes), RBC, and platelets as well as hemoglobin content.

[7] = Collagenase-induced intracerebral hemorrhage model: hemorrhage volume, neurologic deficit score, mortality (Example 25); format: in vivo, BALB/c mice
Procedure: In a first cohort, ISIS 404071 was administered subcutaneously to BALB/c mice twice a week for two weeks at a dose 40 mg/kg. […] In a third cohort, ISIS 421208 ([…], 8 mismatches to murine Factor 11, incorporated herein as SEQ ID NO: 14) was administered subcutaneously to BALB/c mice twice a week for two weeks at a dose 40 mg/kg. In a fourth cohort, PBS was administered to BALB/c mice twice a week for two weeks.
Two days after receiving their final dose, all mice in all cohorts were anesthetized with […] of avertin. Next, the mice were injected at −1 mm AP, 1 mm R ML, −4 mm DV from bregma flat skull with a 10 μL Hamilton syringe containing 0.075 U collagenase (150 U/mL). Collagenase was delivered over 5 minutes and the needle was kept in place for an additional 5 minutes to prevent reflux. The mice were then analyzed for hemorrhagic size, neurologic deficit score, and mortality.
Table 37 presents the hemorrhage volume detected in mice after collagenase treatment, Table 38 presents the neurologic deficit score of the mice, and Table 39 presents the mortality rate of the mice. Neurological deficit is measured by a standard scoring system where no deficiency is zero and severe deficit is five.

[8] = 5 mg/kg twice a week for 3 weeks
[9] = 10 mg/kg twice a week for 3 weeks
[10] = 25 mg/kg twice a week for 3 weeks
[11] = 50 mg/kg twice a week for 3 weeks
[12] = 5-50 mg/kg twice a week for 3 weeks

Row | Substance | ALT [4] [IU/L] | AST [4] [IU/L] | Albumin [4] | Bilirubin [4] [mg/dL] | BUN [5] [mg/dL] | Creatinine [5] [mg/dL] | HCT [6] [%] | MCH [6] | MCHC [6] [%] | MCV [6] | Platelets [6] | RBC [6] | WBC [6] [nL⁻¹] | hemoglobin [6] [g/dL] | lymphocytes [6] [%] | monocytes [6] [%] | neutrophils [6] [%] | also measured
1 | 404050 (eT*eG*e[5mC]*eT*eT*dG*dA*dA*dG*dG*dA*dA*dT*dA*dT*e[5mC]*e[5mC]*eA*eG*eA; antisense) [compound 404050] |  |  |  |  |  |  |  |  |  |  |  |  |  |  |  |  |  | % Inhibition of mouse Factor 11 mRNA levels [1]: 82%
2 | ISIS 404057: antisense oligonucleotide targeted to murine Factor 11 mRNA, TCCTGGCATTCTCGAGCATT, target start site 487 (antisense eT*e[5mC]*e[5mC]*eT*eG*dG*d[5mC]*dA*dT*dT*d[5mC]*dT*d[5mC]*dG*dA*eG*e[5mC]*eA*eT*eT) |  |  |  |  |  |  |  |  |  |  |  |  |  |  |  |  |  | PT INR [2, 8]: 1.00; aPTT INR [2, 8]: 1.07; PT INR [2, 9]: 0.94; aPTT INR [2, 9]: 1.19; PT INR [2, 10]: 1.02; aPTT INR [2, 10]: 1.27; PT INR [2, 11]: 1.00; aPTT INR [2, 11]: 1.37; PT [2, 12]: not significantly prolonged; aPTT [2, 12]: prolonged in a dose-dependent manner; Percent inhibition of mouse Factor 11 mRNA compared to PBS control ([3]; 3 days after antidote/PBS, antisense 40 mg/kg s.c. twice a week for three weeks, ISIS 418026 90 mg/kg single injection where given): 95%
3 | ISIS 416826: 5-10-5 MOE gapmer ATGCCCTTCATGTCTAGGTC (sugars from the 5' end e5 d10 e5, backbone and methylation of C not given here) | 611 | 104 | 6 | 115 | 25 | 6 | 7 | 3 | 4 | 6 | 11 10^3/μL | 5 | 7 | 7 | 5 | 7 | 30 | 
4 | ISIS 416892: 3-14-3 MOE gapmer GCCCTTCATGTCTAGGTCCA (sugars from the 5' end e3 d14 e3, backbone and methylation of C not given here) | 113 | 183 | 8 | 1 | 188 | 1 | 13 | 2 | 0 | 1 | 66 10^3/μL | 12 | 68 | 14 | 18 | 58 | 92 | 
5 | ISIS 416925: MOE gapmer, nucleobases 1275 to 1318 of SEQ ID NO: 1 (Table 8) (antisense GGTGCACAGTTTCTGGCAGG; MOE gapmer, wing and gap sizes not given here) | 102 | 20 | 5 | 13 | 7 | 5 | 8 | 2 | 4 | 5 | 8 10^3/μL | 6 | 24 | 6 | 4 | 23 | 20 | 
6 | ISIS 416999: MOE gapmer, nucleobases 1275 to 1318 of SEQ ID NO: 1 (Table 8) (antisense GCACAGTTTCTGGCAGGCCT; MOE gapmer, wing and gap sizes not given here) | 92 | 28 | 5 | 54 | 2 | 4 | 5 | 3 | 1 | 2 | 12 10^3/μL | 5 | 12 | 6 | 3 | 20 | 23 | 
7 | ISIS 417003: MOE gapmer, nucleobases 1275 to 1318 of SEQ ID NO: 1 (Table 8) (antisense TGGTGCACAGTTTCTGGCAG; MOE gapmer, wing and gap sizes not given here) | 138 | 23 | 6 | 50 | 9 | 9 | 8 | 4 | 4 | 6 | 19 10^3/μL | 11 | 83 | 11 | 3 | 6 | 17 | 
8 | ISIS 418026: ISIS 404071 specific antidote, CCTCTGAAAGTGGATTACCA; complementary to ISIS 404071 (listed as DNA, chemistry not given here) |  |  |  |  |  |  |  |  |  |  |  |  |  |  |  |  |  | inhibition of Factor 11 mRNA expression in ISIS 404057 treated mice ([3]; BALB/c mice, ISIS 404057 40 mg/kg then ISIS 418026 90 mg/kg): had no effect on inhibition of Factor 11 mRNA expression
9 | ISIS 421208: TCGGAAGCGACTCTTATATG, 8 mismatches to murine Factor 11 (listed as DNA, chemistry not given here) [reference compound] |  |  |  |  |  |  |  |  |  |  |  |  |  |  |  |  |  | Hemorrhagic volume after collagenase treatment ([7]; 40 mg/kg s.c. twice a week for two weeks): 41 mm^3; Neurologic Deficit Score after collagenase treatment ([7]; 40 mg/kg s.c. twice a week for two weeks, score zero (no deficiency) to five (severe deficit)): 2.0; % mortality after collagenase treatment ([7]; ISIS oligonucleotides 40 mg/kg s.c., warfarin 2 mg/kg intraperitoneally, twice a week for two weeks): 0%
